Here are results for 10 compounds from publication PMC10096035, “Switching from Aromatase Inhibitors to Dual Targeting Flavonoid-Based Compounds for Breast Cancer Treatment” (Molecules, 2023).

The target of assay [1] is T1, ERα (Estrogen Receptor α) (Homo sapiens, UniProt P03372).
T1 construct: gene ESR1; purified ERα supplied with the PolarScreen kit (Invitrogen); construct not described
T1 sequence (P03372 1-595): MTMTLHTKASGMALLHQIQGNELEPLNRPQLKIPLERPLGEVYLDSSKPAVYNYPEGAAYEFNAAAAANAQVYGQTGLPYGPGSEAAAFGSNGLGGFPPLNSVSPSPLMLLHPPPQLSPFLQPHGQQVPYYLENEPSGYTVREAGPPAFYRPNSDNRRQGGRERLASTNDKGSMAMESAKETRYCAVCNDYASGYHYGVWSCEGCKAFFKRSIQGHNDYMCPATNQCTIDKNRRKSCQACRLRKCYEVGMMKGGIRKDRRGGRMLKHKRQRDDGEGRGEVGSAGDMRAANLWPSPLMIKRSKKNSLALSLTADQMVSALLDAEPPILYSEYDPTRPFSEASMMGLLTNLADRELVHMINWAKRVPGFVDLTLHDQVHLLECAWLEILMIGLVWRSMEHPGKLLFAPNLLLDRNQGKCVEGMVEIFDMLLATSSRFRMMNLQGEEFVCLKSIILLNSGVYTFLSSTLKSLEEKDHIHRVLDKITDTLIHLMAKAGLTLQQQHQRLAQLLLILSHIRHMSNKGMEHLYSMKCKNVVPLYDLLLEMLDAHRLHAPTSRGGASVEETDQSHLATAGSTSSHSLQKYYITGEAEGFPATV
The assay can be described thus: fluorescence polarization competition (PolarScreen). The note with it: read-out: ERα Binding IC50 μM ^1. The source says:
fluorescence polarization competition (PolarScreen) on ERα (Estrogen Receptor α)
(In general: Fluorescence polarisation rises when a labelled molecule tumbles more slowly, as on binding a larger partner.)

The target in assay [2] is T2, aromatase (AR; CYP19A) (Homo sapiens, UniProt P11511).
T2 construct: gene CYP19A1; construct not described
T2 sequence (P11511 1-503): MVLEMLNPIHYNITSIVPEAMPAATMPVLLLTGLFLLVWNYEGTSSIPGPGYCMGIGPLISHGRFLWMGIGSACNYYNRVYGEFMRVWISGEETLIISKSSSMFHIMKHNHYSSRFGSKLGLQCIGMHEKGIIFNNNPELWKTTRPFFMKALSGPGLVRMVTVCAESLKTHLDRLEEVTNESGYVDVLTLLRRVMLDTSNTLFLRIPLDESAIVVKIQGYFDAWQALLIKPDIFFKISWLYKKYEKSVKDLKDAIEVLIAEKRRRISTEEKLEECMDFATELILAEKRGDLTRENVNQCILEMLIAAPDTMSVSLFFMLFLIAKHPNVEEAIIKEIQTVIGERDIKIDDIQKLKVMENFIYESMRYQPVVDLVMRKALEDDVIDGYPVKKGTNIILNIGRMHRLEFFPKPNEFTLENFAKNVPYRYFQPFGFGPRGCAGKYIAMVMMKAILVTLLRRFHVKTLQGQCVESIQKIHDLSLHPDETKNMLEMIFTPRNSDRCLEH
Briefly: fluorometric aromatase inhibition kit. Format: biochemical. The note with it: read-out: AR Inhibition IC50 μM ^1. The source says:
fluorometric aromatase inhibition kit on aromatase (AR; CYP19A)

With `O=c1c(Cn2ccnc2)c(-c2ccccc2)oc2ccccc12` [1b], the IC50 in assay [1] was more than 10 µM.
As for `N#Cc1ccc(C(c2ccc(C#N)cc2)n2cncn2)cc1` [Letrozole], the IC50 in assay [1] is more than 10 µM.
`CC/C(=C(\c1ccc(O)cc1)c1ccc(OCCNC)cc1)c1ccccc1` [Endoxifen]: the values for the concentration for half-maximal inhibition (IC50) in assay [1] and in assay [2] were 0.043 µM and more than 10 µM, respectively.
For the compound `O=c1c(C(c2ccc([N+](=O)[O-])cc2)n2ccnc2)coc2ccccc12` (racemic) [3a], in assay [1], the IC50 was more than 10 µM.
As to `O=c1c(Cn2ccnc2)c(-c2ccccc2)oc2cc(O)ccc12` [2b, 3-((1H-imidazol-1-yl)methyl)-7-hydroxy-2-phenyl-4H-chromen-4-one], the IC50 was more than 10 µM in assay [1] and 4 µM in assay [2].
The like results for `O=c1c(C(c2ccccc2)n2ccnc2)coc2cc(O)ccc12` (racemic) [4b, 3-((1H-imidazol-1-yl)(phenyl)methyl)-7-hydroxy-4H-chromen-4-one] were, in that order, 0.203 µM and 2.2 µM.
Take `O=c1c(C(c2ccccc2)n2ccnc2)coc2ccccc12` (racemic) [3b, 3-((1H-imidazol-1-yl)(phenyl)methyl)-4H-chromen-4-one]: the IC50 in assay [1] came to 0.31 µM; in assay [2] it was 0.5 µM.
Consider `O=c1c(Cn2ccnc2)c(-c2ccc([N+](=O)[O-])cc2)oc2cc(O)ccc12` [2a, 3-((1H-imidazol-1-yl)methyl)-7-hydroxy-2-(4-nitrophenyl)-4H-chromen-4-one], for which the figures for the IC50 in assay [1] and in assay [2] were more than 10 µM and 2.1 µM, respectively.
For the compound `O=c1c(Cn2ccnc2)c(-c2ccc([N+](=O)[O-])cc2)oc2ccccc12` [1a], in assay [1], the IC50 was more than 10 µM.
Take `O=c1c(C(c2ccc([N+](=O)[O-])cc2)n2ccnc2)coc2cc(O)ccc12` (racemic) [4a, 3-((1H-imidazol-1-yl)(4-nitrophenyl)methyl)-7-hydroxy-4H-chromen-4-one]: the values for the IC50 in assay [1] and in assay [2] were 0.595 µM and 0.122 µM, respectively.

Broadly, the IC50 is the concentration needed to halve the response being measured.
